US7875644B2, “1-acyldihydropyrazole derivatives” (Merck Patent GmbH, priority 2005, dated 2011)

Biological target: T1, Met kinase (Homo sapiens, UniProt P08581)
T1 construct: 6His (N); purchased Upstate 14-526; host or cells: Sf21 insect cells (S. frugiperda), baculovirus
Assay: Met kinase inhibition, flashplate method
Type: biochemical
Settings: 33P-ATP, substrate pAGLT, 3 hrs at room temperature
Description: According to the manufacturer's data (Met, active, upstate, catalogue No. 14-526), Met kinase is expressed for the purposes of protein production in insect cells (Sf21; S. frugiperda) and subsequent affinity-chromatographic purification as “N-terminal 6His-tagged” recombinant human protein in a baculovirus expression vector.
The test plates used are 96-well Flashplate^R microtitre plates from Perkin Elmer (Cat. No. SM P200). The components of the kinase reaction described below are pipetted into the assay plate. The Met kinase and the substrate poly Ala-Glu-Lys-Tyr, (pAGLT, 6:2:5:1), are incubated for 3 hrs at room temperature with radioactively labelled ^33P-ATP in the presence and absence of test substances in a total volume of 100 μl. The reaction is terminated using 150 μl of a 60 mM EDTA solution. After incubation for a further 30 min at room temperature, the supernatants are filtered off with suction, and the wells are washed three times with 200 μl of 0.9% NaCl solution each time. The measurement of the bound radioactivity is carried out by means of a scintillation measuring instrument (Topcount NXT, Perkin-Elmer).
The full value used is the inhibitor-free kinase reaction. This should be approximately in the range 6000-9000 cpm. The pharmacological zero value used is staurosporin in a final concentration of 0.1 mM. The inhibitory values (IC50) are determined using the RS1_MTS program.
Kinase reaction conditions per well: • 30 μl of assay buffer • 10 μl of substance to be tested in assay buffer with 10% of DMSO • 10 μl of ATP (final concentration 1 μM cold, 0.35 μCi of ^33P-ATP) • 50 μl of Met kinase/substrate mixture in assay buffer; • (10 ng of enzyme/well, 50 ng of pAGLT/well) • Solutions used: • Assay buffer: • 50 mM HEPES • 3 mM magnesium chloride • 3 μM sodium orthovanadate • 3 mM manganese(II) chloride • 1 mM dithiothreitol (DTT) • pH=7.5 (to be set using sodium hydroxide) • Stop solution: • 60 mM Titriplex III (EDTA) • ^33P-ATP: Perkin-Elmer; • Met kinase: Upstate, Cat. No. 14-526, Stock 1 μg/10 μl; spec. activity 954 U/mg; • Poly-Ala-Glu-Lys-Tyr, 6:2:5:1:Sigma Cat. No. P1152

T1 sequence (P08581 974-1390 limits assumed): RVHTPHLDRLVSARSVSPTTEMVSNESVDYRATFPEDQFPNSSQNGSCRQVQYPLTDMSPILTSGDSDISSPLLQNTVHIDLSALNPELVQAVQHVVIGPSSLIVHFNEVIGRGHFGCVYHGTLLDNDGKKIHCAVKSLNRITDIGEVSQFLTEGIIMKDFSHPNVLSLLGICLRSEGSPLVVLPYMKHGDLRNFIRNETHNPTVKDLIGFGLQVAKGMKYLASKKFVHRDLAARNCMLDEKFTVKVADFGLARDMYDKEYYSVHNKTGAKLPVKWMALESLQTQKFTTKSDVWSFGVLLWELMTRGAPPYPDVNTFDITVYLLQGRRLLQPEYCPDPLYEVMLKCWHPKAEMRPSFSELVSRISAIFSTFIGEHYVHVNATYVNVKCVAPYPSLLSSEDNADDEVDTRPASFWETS

Row | SMILES | IC50 [nM]
1 | COc1ccc(C2=NN(C(=O)Cc3ccc4nsnc4c3)CC2)c(OC)c1 [Compound A1, 1-(benzo-1,2,5-thiadiazol-5-ylmethylcarbonyl)-3-(2,4-dimethoxyphenyl)-4,5-dihydro-1H-pyrazole] | 320
2 | O=C(Cc1ccc2nsnc2c1)N1CCC(c2ccc(F)cc2)=N1 [Compound A2, 1-(benzo-1,2,5-thiadiazol-5-ylmethylcarbonyl)-3-(4-fluorophenyl)-4,5-dihydro-1H-pyrazole] | 610
3 | COc1ccc(C2=NN(C(=O)Cc3cccc(O)c3)CC2)c(OC)c1 [Compound A30, 1-(3-Hydroxybenzylcarbonyl)-3-(2,4-dimethoxy-phenyl)-4,5-dihydro-1H-pyrazole] | 990
4 | O=C(Cc1cccc(O)c1)N1CCC(c2ccc(F)cc2)=N1 [Compound A31, 1-(3-Hydroxybenzylcarbonyl)-3-(4-fluorophenyl)-4,5-dihydro-1H-pyrazole] | 330
5 | CC(C(=O)N1CCC(c2ccc3c(c2)CNC(=O)N3)=N1)c1ccc(O)cc1 (stereo not drawn) [Compound A100, 3-(2-Oxo-3,4-dihydro-1H-quinazolin-6-yl)-1-[2-(4-hydroxyphenyl)propionyl]-4,5-dihydro-1H-pyrazole] | 9

The next lines start with the values.

Row | IC50 [nM] | SMILES
6 | 3 | O=C(Cc1ccc2[nH]cnc2c1)N1CCC(c2cc(Cl)ccc2O)=N1 [Compound A108, 1-[2-(1H-Benzimidazol-5-yl)acetyl]-3-(3-chloro-6-hydroxyphenyl)-4,5-dihydro-1H-pyrazole]
7 | 3.6 | CC(C(=O)N1CCC(c2cc(Cl)ccc2O)=N1)c1ccc(O)cc1 (stereo not drawn) [Compound A120, 3-(3-Chloro-6-hydroxyphenyl)-1-[2-(4-hydroxy-phenyl)propionyl]-4,5-dihydro-1H-pyrazole]
8 | 8 | CN(C)CCCOC(=O)Nc1cccc(CC(=O)N2CCC(c3cc(Cl)ccc3Cl)=N2)c1 [Compound A153, 3-Dimethylaminopropyl (3-{2-[3-(2,5-dichlorophenyl)-4,5-dihydro-1H-pyrazol-1-yl]-2-oxoethyl}phenyl)carbamate]
9 | 2.5 | O=C(Nc1cccc(CC(=O)N2CCC(c3cc(Cl)ccc3Cl)=N2)c1)OCCCN1CCOCC1 [Compound A154, 3-morpholin-4-ylpropyl (3-{2-[3-(2,5-dichlorophenyl)-4,5-dihydro-1H-pyrazol-1-yl]-2-oxoethyl}phenyl)carbamate]
